Literature values as cited in article PMC8625207, “Antikinetoplastid Activity of Sesquiterpenes Isolated from the Zoanthid Palythoa aff. clavata” (Pharmaceuticals, 2021).

System: T. brucei rhodes
Parameters: method as in PMID 19513006
Conditions: cited from earlier work

C=C1C(=O)OC2C1CCC1(C)C(O)CCC(=C)C21 (stereo not shown) [compound 19]
selectivity against T. brucei rhodes: high selectivity
